# US20220411428A1, “Pyrimidone Derivatives Containing Two Fused Bicyclic Rings” (priority 2019, published 2022)
# How the values were obtained:
# Assay type in all cases: in vivo
# [1] = test system: boll weevil (Anthonomus grandis); experiment: Boll weevil (Anthonomus grandis) microtiter insect-diet test; conditions: 120 h, read-out: mortality in comparison with untreated controls
# Description: (§1) If not otherwise specified, the test solutions are prepared as follows: The active compound is dissolved at the desired concentration in a mixture of 1:1 (vol:vol) distilled water:acteone. The test solution is prepared at the day of use. Test solutions are prepared in general at concentrations of 2500 ppm, 1415 ppm, 828 ppm, 800 ppm and 300 ppm (wt/vol).
# (§2) For evaluating control of boll weevil (Anthonomus grandis) the test unit consisted of 96-well-microtiter plates containing an insect diet and 5-10 A. grandis eggs. The compounds were formulated using a solution containing 75% v/v water and 25% v/v DMSO. Different concentrations of formulated compounds were sprayed onto the insect diet at 5 μl, using a custom built micro atomizer, at two replications. After application, microtiter plates were incubated at about 25±1° C. and about 75±5% relative humidity for 5 days. Egg and larval mortality was then visually assessed.
# [2] = test system: Greenhouse Whitefly (Trialeurodes vaporariorum); experiment: Greenhouse whitefly (Trialeurodes vaporariorum) egg plant leaf disk test; conditions: foliar, 144 h, read-out: mortality in comparison with untreated controls
# Description: as §1
# For evaluating control of Greenhouse Whitefly (Trialeurodes vaporariorum) the test unit consisted of 96-well-microtiter plates containing a leaf disk of egg plant leaf disk with white fly eggs. The compounds or mixtures were formulated using a solution containing 75% water and 25% DMSO. Different concentrations of formulated were sprayed onto the insect diet at 2.5 μl, using a custom-built micro atomizer, at two replications. After application, microtiter plates were incubated at 23±1° C., 65±5% R^H for 6 days. Mortality of hatched crawlers was then visually assessed.
# [3] = test system: yellow fever mosquito (Aedes aegypti); experiment: whole plant or invertebrate; conditions: 48 h, larval mortality, 2 days, read-out: mortality in comparison with untreated controls
# Description: as §1
# For evaluating control of yellow fever mosquito (Aedes aegypti) the test unit consisted of 96-well-microtiter plates containing 200 μl of tap water per well and 5-15 freshly hatched A. aegypti 5 larvae. The active compounds were formulated using a solution containing 75% (v/v) water and 25% (v/v) DMSO. Different concentrations of formulated compounds or mixtures were sprayed onto the insect diet at 2.5 μl, using a custom-built micro atomizer, at two replications. After application, microtiter plates were incubated at 28±1° C., 80±5% R^H for 2 days. Larval 10 mortality was then visually assessed.
# [4] = test system: green peach aphid (Myzus persicae); experiment: Green peach aphid (Myzus persicae) systemic test, artificial diet under membrane; conditions: 72 h, read-out: mortality in comparison with untreated controls
# Description: as §1
# For evaluating control of green peach aphid (Myzus persicae) through systemic means the test unit consisted of 96-well-microtiter plates containing liquid artificial diet under an artificial membrane. The compounds were formulated using a solution containing 75% v/v water and 25% v/v DMSO. Different concentrations of formulated compounds were pipetted into the aphid diet, using a custom built pipetter, at two replications. After application, 5-8 adult aphids were placed on the artificial membrane inside the microtiter plate wells. The aphids were then allowed to suck on the treated aphid diet and incubated at about 23±1° C. and about 50±5% relative humidity for 3 days. Aphid mortality and fecundity was then visually assessed.
# [5] = test system: tobacco budworm (Heliothis virescens); experiment: Tobacco budworm (Heliothis virescens) microtiter insect-diet test; conditions: 120 h, read-out: mortality in comparison with untreated controls
# Description: as §1
# as §2, with “of tobacco budworm (Heliothis virescens)” for “of boll weevil (Anthonomus grandis)”, “and 15-25 H. virescens” for “and 5-10 A. grandis”, “at 10” for “at 5”, “about 28±1°” for “about 25±1°”, “about 80±5%” for “about 75±5%”
# [6] = test system: vetch aphid (Megoura viciae); experiment: Vetch aphid (Megoura viciae) broad bean leaf disk test, contact or systemic; conditions: foliar, 120 h, read-out: mortality in comparison with untreated controls
# Description: as §1
# For evaluating control of vetch aphid (Megoura viciae) through contact or systemic means the test unit consisted of 24-well-microtiter plates containing broad bean leaf disks.
# The compounds were formulated using a solution containing 75% v/v water and 25% v/v DMSO. Different concentrations of formulated compounds were sprayed onto the leaf disks at 2.5 μl, using a custom built micro atomizer, at two replications. After application, the leaf disks were air-dried and 5-8 adult aphids placed on the leaf disks inside the microtiter plate wells. The aphids were then allowed to suck on the treated leaf disks and incubated at about 23±1° C. and about 50±5% relative humidity for 5 days. Aphid mortality and fecundity was then visually assessed.
SMILES,mortality at 828 ppm [1] [%],mortality at 2500 ppm [2] [%],mortality at 2500 ppm [3] [%],mortality at 2500 ppm [4] [%],mortality at 800 ppm [1] [%],mortality at 800 ppm [5] [%],mortality at 800 ppm ([3]; 800 ppm) [%],mortality at 800 ppm [4] [%],mortality at 2500 ppm [5] [%],mortality at 2500 ppm [6] [%]
"CCS(=O)(=O)c1c(-c2cn3c(=O)n(C4CC4)c(C(F)(F)F)cc3n2)nc2ccccn12 [I.2, 6-cyclopropyl-2-[3-(ethanesulfonyl)imidazo[1,2-a]pyridin-2-yl]-7-(trifluoromethyl)imidazo[1,2-c]pyrimidin-5-one]",> 75,≥ 75,≥ 75,> 75,,,,,,
"CCS(=O)(=O)c1c(-c2cn3c(=O)n(C4CC4)c(C(F)(F)F)cc3n2)nn2ccccc12 [I.11, 6-cyclopropyl-2-(3-ethylsulfonylpyrazolo[1,5-a]pyridin-2-yl)-7-(trifluoromethyl)imidazo[1,2-c]pyrimidin-5-one]",,,,,> 75,> 75,≥ 75,> 75,,
"CCS(=O)(=O)c1c(-c2cn3c(=O)n(C)c(C(F)(F)F)cc3n2)nc2n1CCCC2 [I.13, 2-(3-ethylsulfonyl-5,6,7,8-tetrahydroimidazo[1,2-a]pyridin-2-yl)-6-methyl-7-(trifluoromethyl)imidazo[1,2-c]pyrimidin-5-one]",,,,,> 75,,,,,
"CCS(=O)(=O)c1c(-c2cn3c(=O)n(C)c(C(F)(F)F)cc3n2)nc2ccc(C(F)(F)F)cn12 [I.1, 2-[3-ethylsulfonyl-6-(trifluoromethyl)imidazo[1,2-a]pyridin-2-yl]-6-methyl-7-(trifluoromethyl)imidazo[1,2-c]pyrimidin-5-one]",,,≥ 75,> 75,> 75,,,,> 75,> 75
